# In paper PMC7265341, “Quantifying CDK inhibitor selectivity in live cells” (Nature Communications, 2020):
# Read-outs that look alike come from different tables or passages of the source.
# Experiments:
# CDK9/Cyclin K = CDK9/Cyclin K (Homo sapiens, UniProt P50750); test: NanoBRET live-cell target engagement, NanoLuc-CDK9/Cyclin K in HEK-293; format: binding; conditions: CDK9/K; for inhibition at 10 µM: read-out: Inhibition at 10µM (%)
# CDK5/CDK5R1 = CDK5/CDK5R1 (Homo sapiens, UniProt Q00535); test: NanoBRET live-cell target engagement, CDK5-NanoLuc/CDK5R1 in HEK-293; format: binding; conditions: CDK5/CDK5R1, read-out: Inhibition at 10µM (%)
# CDK14/Cyclin Y = CDK14/Cyclin Y (Homo sapiens, UniProt O94921); test: NanoBRET live-cell target engagement, CDK14-NanoLuc/Cyclin Y in HEK-293; format: binding; conditions: CDK14/Y, read-out: Inhibition at 10µM (%)
# CDK10/Cyclin L2 = CDK10/Cyclin L2 (Homo sapiens, UniProt Q15131); test: NanoBRET live-cell target engagement, CDK10-NanoLuc/Cyclin L2 in HEK-293; conditions: for IC50: IC50 (nM), CDK10/L2; for inhibition at 10 µM: read-out: Inhibition at 10µM (%), CDK10/L2
# Chain of CDK10/Cyclin L2 (Q15131 whole entry): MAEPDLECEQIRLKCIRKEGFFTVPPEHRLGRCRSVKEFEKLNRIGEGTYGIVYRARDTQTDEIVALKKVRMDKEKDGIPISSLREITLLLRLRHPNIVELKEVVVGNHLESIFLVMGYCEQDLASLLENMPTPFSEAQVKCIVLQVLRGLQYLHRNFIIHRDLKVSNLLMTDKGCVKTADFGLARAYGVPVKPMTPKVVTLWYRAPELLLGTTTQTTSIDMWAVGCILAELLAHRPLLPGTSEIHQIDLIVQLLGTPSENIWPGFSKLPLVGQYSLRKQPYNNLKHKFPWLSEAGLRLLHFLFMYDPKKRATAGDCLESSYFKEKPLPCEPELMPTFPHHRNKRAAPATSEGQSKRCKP
# CDK20/Cyclin H = CDK20/Cyclin H (Homo sapiens, UniProt Q8IZL9); test: NanoBRET live-cell target engagement, NanoLuc-CDK20/Cyclin H in HEK-293; format: binding; conditions: CDK20/H, read-out: Inhibition at 10µM (%)
# CDK19/Cyclin C = CDK19/Cyclin C (Homo sapiens, UniProt Q9BWU1); test: NanoBRET live-cell target engagement, NanoLuc-CDK19/Cyclin C in HEK-293; conditions: read-out: Inhibition at 10µM (%), CDK19/C
# CDK3/Cyclin E1 = CDK3/Cyclin E1 (Homo sapiens, UniProt Q00526); test: NanoBRET live-cell target engagement, CDK3-NanoLuc/Cyclin E1 in HEK-293; format: binding; conditions: CDK3/E1, read-out: Inhibition at 10µM (%)
# CDK18/Cyclin Y = CDK18/Cyclin Y (Homo sapiens, UniProt Q07002); test: NanoBRET live-cell target engagement, CDK18-NanoLuc/Cyclin Y in HEK-293; format: binding; conditions: for IC50: read-out: IC50
# CDK1/Cyclin E1 = CDK1/Cyclin E1 (Homo sapiens, UniProt P06493); test: NanoBRET live-cell target engagement, CDK1-NanoLuc/Cyclin E1 in HEK-293; format: binding; conditions: CDK1/E1, read-out: Inhibition at 10µM (%)
# CDK12/Cyclin K = CDK12/Cyclin K (Homo sapiens, UniProt Q9NYV4); test: NanoBRET live-cell target engagement, CDK12-NanoLuc/Cyclin K in HEK-293; format: binding; conditions: read-out: Inhibition at 10µM (%), CDK12/K
# CDK16/Cyclin Y = CDK16/Cyclin Y (Homo sapiens, UniProt Q00536); test: NanoBRET live-cell target engagement, CDK16-NanoLuc/Cyclin Y in HEK-293; format: binding; conditions: CDK16/Y; for IC50: read-out: IC50; for inhibition at 10 µM: read-out: Inhibition at 10µM (%)
# CDK13/Cyclin K = CDK13/Cyclin K (Homo sapiens, UniProt Q14004); test: NanoBRET live-cell target engagement, CDK13-NanoLuc/Cyclin K in HEK-293; format: binding; conditions: CDK13/K, read-out: Inhibition at 10µM (%)
# Chain of CDK13/Cyclin K (O75909 whole entry): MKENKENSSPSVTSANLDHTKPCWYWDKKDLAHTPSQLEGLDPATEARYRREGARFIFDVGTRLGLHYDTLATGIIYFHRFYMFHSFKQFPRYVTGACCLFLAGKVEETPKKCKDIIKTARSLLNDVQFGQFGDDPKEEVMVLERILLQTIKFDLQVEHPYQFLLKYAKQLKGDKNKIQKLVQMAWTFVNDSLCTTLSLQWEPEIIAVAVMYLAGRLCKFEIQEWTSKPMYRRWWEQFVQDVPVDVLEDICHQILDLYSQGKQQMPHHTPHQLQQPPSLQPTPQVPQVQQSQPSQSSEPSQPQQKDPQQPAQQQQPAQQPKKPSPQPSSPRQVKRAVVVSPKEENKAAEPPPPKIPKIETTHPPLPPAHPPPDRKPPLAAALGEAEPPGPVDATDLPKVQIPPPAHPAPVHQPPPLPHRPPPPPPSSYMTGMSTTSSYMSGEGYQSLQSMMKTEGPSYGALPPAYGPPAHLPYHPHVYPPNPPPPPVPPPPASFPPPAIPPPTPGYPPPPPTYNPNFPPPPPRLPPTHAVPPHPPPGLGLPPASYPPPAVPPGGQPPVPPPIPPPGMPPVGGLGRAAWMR
# Chain of CDK13/Cyclin K (Q14004 other isoform, or with tags, fused parts or gaps): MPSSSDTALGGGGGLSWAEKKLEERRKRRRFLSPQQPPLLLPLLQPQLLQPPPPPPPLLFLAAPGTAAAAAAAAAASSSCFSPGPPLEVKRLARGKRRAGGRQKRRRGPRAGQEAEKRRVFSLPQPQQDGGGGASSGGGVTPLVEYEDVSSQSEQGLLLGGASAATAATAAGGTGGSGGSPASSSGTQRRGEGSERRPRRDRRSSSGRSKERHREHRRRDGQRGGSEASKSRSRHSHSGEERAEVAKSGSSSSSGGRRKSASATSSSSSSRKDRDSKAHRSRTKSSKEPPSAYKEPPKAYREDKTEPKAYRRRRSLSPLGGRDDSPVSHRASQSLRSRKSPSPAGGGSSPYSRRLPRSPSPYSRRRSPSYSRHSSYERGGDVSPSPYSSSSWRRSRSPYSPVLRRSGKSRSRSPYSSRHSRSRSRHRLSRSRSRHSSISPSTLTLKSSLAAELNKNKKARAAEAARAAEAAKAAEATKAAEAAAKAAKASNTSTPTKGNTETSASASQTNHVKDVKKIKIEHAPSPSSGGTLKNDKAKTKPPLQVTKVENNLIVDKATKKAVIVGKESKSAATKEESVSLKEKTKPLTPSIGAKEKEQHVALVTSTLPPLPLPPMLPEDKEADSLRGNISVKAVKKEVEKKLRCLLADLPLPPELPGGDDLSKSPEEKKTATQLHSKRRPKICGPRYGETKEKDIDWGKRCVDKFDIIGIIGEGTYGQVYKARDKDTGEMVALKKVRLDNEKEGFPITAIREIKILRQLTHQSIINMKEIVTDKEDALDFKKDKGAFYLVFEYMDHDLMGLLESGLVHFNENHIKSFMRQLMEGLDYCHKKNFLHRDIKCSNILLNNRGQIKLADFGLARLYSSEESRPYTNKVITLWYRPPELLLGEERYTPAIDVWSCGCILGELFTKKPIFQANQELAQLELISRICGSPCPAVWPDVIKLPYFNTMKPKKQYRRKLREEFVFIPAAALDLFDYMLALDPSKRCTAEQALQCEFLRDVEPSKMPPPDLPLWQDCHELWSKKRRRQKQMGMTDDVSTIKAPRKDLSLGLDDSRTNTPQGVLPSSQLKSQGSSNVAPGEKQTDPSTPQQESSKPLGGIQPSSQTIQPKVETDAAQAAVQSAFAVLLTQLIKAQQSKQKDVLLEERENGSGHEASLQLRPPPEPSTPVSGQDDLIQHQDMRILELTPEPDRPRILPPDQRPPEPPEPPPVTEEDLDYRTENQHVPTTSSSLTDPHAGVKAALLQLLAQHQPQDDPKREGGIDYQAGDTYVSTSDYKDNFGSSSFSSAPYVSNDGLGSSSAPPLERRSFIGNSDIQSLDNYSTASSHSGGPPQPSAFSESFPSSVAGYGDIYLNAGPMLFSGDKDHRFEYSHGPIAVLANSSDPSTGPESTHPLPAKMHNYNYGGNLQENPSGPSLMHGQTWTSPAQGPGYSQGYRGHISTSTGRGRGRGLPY
# CDK15/Cyclin Y = CDK15/Cyclin Y (Homo sapiens, UniProt Q96Q40); test: NanoBRET live-cell target engagement, NanoLuc-CDK15/Cyclin Y in HEK-293; format: binding; conditions: CDK15/Y; for IC50: read-out: IC50; for inhibition at 10 µM: read-out: Inhibition at 10µM (%)
# Chain of CDK15/Cyclin Y (Q96Q40 whole entry): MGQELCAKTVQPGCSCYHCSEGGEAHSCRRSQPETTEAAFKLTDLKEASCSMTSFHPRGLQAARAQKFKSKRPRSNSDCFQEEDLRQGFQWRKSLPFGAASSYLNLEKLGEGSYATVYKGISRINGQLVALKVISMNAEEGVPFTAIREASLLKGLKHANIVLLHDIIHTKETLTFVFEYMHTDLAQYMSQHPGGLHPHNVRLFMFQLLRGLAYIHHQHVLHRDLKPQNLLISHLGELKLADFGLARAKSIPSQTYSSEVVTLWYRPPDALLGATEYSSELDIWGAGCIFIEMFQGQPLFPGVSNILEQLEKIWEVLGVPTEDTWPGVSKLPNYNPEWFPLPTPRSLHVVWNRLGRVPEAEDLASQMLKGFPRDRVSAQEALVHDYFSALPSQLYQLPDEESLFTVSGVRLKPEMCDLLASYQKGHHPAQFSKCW
# Chain of CDK15/Cyclin Y (Q8ND76 whole entry partner): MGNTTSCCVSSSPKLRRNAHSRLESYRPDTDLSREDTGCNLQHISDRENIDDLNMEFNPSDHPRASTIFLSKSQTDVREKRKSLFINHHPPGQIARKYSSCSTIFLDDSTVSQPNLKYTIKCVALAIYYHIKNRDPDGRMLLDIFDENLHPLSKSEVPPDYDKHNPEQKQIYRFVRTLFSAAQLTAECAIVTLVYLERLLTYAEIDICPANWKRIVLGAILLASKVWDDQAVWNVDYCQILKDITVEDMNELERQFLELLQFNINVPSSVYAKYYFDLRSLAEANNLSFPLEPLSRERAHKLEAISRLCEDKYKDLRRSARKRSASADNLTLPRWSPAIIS
# CDK7 = CDK7 (Homo sapiens, UniProt P50613); test: NanoBRET live-cell target engagement, NanoLuc-CDK7 in HEK-293; format: binding; conditions: CDK7; for IC50: read-out: IC50; for inhibition at 10 µM: read-out: Inhibition at 10µM (%)
# CDK17/Cyclin Y = CDK17/Cyclin Y (Homo sapiens, UniProt Q00537); test: NanoBRET live-cell target engagement, CDK17-NanoLuc/Cyclin Y in HEK-293; format: binding; conditions: CDK17/Y; for IC50: read-out: IC50; for inhibition at 10 µM: read-out: Inhibition at 10µM (%)
# CDK4/Cyclin D1 = CDK4/Cyclin D1 (Homo sapiens, UniProt P11802); test: NanoBRET live-cell target engagement, NanoLuc-CDK4/Cyclin D1 in HEK-293; format: binding; conditions: CDK4/D1, read-out: Inhibition at 10µM (%)
# CDK6/Cyclin D1 = CDK6/Cyclin D1 (Homo sapiens, UniProt Q00534); test: NanoBRET live-cell target engagement, NanoLuc-CDK6/Cyclin D1 in HEK-293; format: binding; conditions: CDK6/D1, read-out: Inhibition at 10µM (%)
# Chain of CDK6/Cyclin D1 (Q00534 whole entry): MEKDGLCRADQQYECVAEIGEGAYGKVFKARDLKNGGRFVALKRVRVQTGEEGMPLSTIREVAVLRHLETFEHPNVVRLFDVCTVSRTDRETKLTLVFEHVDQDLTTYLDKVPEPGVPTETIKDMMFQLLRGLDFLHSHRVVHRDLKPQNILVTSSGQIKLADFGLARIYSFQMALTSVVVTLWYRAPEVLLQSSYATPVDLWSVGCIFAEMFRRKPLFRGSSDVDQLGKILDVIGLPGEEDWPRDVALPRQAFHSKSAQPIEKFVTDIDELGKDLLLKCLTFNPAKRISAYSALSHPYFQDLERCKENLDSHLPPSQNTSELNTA
# Chain of CDK6/Cyclin D1 (P24385 whole entry partner): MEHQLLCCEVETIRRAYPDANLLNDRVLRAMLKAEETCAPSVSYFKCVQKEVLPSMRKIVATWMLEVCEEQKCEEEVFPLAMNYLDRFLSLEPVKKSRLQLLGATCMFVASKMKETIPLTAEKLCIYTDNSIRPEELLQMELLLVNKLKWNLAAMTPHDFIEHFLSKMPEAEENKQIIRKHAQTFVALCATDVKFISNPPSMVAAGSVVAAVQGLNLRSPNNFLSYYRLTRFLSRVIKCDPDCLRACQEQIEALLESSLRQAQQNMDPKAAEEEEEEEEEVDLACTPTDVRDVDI
# CDK11B/Cyclin L2 = CDK11B/Cyclin L2 (Homo sapiens, UniProt P21127); test: NanoBRET live-cell target engagement, CDK11B-NanoLuc/Cyclin L2 in HEK-293; format: binding; conditions: CDK11b/L2; for IC50: read-out: IC50; for inhibition at 10 µM: read-out: Inhibition at 10µM (%)
# Chain of CDK11B/Cyclin L2 (P21127 1-782 isoform P21127-2): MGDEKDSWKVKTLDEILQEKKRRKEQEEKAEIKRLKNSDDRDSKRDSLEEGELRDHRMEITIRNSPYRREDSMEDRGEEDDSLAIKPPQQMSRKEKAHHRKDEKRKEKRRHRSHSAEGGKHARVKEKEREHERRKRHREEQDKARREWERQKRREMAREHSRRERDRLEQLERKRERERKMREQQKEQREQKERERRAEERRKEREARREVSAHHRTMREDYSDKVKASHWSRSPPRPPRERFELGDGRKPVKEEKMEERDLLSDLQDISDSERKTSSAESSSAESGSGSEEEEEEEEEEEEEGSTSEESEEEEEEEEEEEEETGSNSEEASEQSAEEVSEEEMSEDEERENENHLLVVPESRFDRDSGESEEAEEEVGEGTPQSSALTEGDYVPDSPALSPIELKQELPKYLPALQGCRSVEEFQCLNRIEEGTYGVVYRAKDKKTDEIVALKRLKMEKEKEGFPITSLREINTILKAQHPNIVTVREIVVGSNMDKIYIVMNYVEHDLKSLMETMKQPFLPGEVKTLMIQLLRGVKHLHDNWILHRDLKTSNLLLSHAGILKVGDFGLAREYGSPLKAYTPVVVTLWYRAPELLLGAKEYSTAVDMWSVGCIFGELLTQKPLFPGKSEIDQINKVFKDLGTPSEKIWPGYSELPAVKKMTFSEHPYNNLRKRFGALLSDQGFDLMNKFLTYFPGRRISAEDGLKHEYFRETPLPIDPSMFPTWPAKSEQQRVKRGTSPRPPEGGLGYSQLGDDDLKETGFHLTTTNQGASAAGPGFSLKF
# CDK2/Cyclin E1 = CDK2/Cyclin E1 (Homo sapiens, UniProt P24941); test: NanoBRET live-cell target engagement, CDK2-NanoLuc/Cyclin E1 in HEK-293; format: binding; conditions: CDK2/E1, read-out: Inhibition at 10µM (%)
# CDK8/Cyclin C = CDK8/Cyclin C (Homo sapiens, UniProt P49336); test: NanoBRET live-cell target engagement, NanoLuc-CDK8/Cyclin C in HEK-293; format: binding; conditions: CDK8/C, read-out: Inhibition at 10µM (%)
# Chain of CDK9/Cyclin K (P50750 whole entry): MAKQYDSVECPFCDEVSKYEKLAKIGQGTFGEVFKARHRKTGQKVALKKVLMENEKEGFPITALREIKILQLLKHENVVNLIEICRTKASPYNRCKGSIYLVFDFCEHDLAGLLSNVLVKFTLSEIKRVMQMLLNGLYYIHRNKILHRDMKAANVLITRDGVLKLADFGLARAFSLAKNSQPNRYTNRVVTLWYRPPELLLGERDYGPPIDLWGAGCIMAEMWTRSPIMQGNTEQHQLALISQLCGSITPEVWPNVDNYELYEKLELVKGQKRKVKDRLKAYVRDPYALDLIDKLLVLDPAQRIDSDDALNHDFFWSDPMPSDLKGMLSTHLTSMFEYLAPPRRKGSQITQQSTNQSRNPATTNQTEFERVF
# Chain of CDK9/Cyclin K (O75909 whole entry partner): as the sequence (O75909 whole entry) above
smiles,measurement,setting,value
COc1ccc(F)cc1-c1cc(NC(=O)C2CCCNC2)ncc1Cl (stereo not drawn) [CDK inhibitor 2],IC50,CDK9/Cyclin K; average (± SEM where n=3),3.5 ± 0.8 nM
same,inhibition at 10 µM,CDK9/Cyclin K; average,98.4%
same,IC50,CDK9/Cyclin K; experiment 1,5 nM
same,inhibition at 10 µM,CDK9/Cyclin K; experiment 1,99.1%
same,IC50,CDK9/Cyclin K; experiment 2,2.3 nM
same,inhibition at 10 µM,CDK9/Cyclin K; experiment 2,97.8%
same,IC50,CDK9/Cyclin K; experiment 3,3 nM
same,inhibition at 10 µM,CDK5/CDK5R1; average,40%
same,inhibition at 10 µM,CDK5/CDK5R1; experiment 1,37.7%
same,inhibition at 10 µM,CDK5/CDK5R1; experiment 2,42.4%
same,inhibition at 10 µM,CDK14/Cyclin Y; average,86.5%
same,inhibition at 10 µM,CDK14/Cyclin Y; experiment 1,89.6%
same,inhibition at 10 µM,CDK14/Cyclin Y; experiment 2,83.5%
same,IC50,CDK10/Cyclin L2; average (± SEM where n=3),500 ± 200 nM
same,IC50,CDK10/Cyclin L2; experiment 1,340 nM
same,IC50,CDK10/Cyclin L2; experiment 2,230 nM
same,IC50,CDK10/Cyclin L2; experiment 3,972 nM
same,inhibition at 10 µM,CDK10/Cyclin L2; average,83.1%
same,inhibition at 10 µM,CDK10/Cyclin L2; experiment 1,83.7%
same,inhibition at 10 µM,CDK10/Cyclin L2; experiment 2,82.5%
same,inhibition at 10 µM,CDK20/Cyclin H; experiment 1,18.7%
same,inhibition at 10 µM,CDK20/Cyclin H; experiment 2,27.3%
same,inhibition at 10 µM,CDK19/Cyclin C; average,72.6%
same,inhibition at 10 µM,CDK19/Cyclin C; experiment 1,75.1%
same,inhibition at 10 µM,CDK19/Cyclin C; experiment 2,70.1%
same,inhibition at 10 µM,CDK3/Cyclin E1; average,92.7%
same,inhibition at 10 µM,CDK3/Cyclin E1; experiment 1,92.3%
same,inhibition at 10 µM,CDK3/Cyclin E1; experiment 2,93%
same,IC50,"CDK18/Cyclin Y; CDK18/Y, average (± SEM where n=3)",140 ± 30 nM
same,IC50,"CDK18/Cyclin Y; CDK18/Y, experiment 1",104 nM
same,inhibition at 10 µM,"CDK18/Cyclin Y; CDK18/Y, experiment 1, read-out: Inhibition at 10µM (%)",93.5%
same,IC50,"CDK18/Cyclin Y; CDK18/Y, experiment 2",210 nM
same,inhibition at 10 µM,"CDK18/Cyclin Y; CDK18/Y, experiment 2, read-out: Inhibition at 10µM (%)",102%
same,IC50,"CDK18/Cyclin Y; CDK18/Y, experiment 3",112 nM
same,inhibition at 10 µM,"CDK18/Cyclin Y; read-out: Inhibition at 10µM (%), CDK18/Y, average",97.8%
same,inhibition at 10 µM,CDK1/Cyclin E1; average,79.7%
same,inhibition at 10 µM,CDK1/Cyclin E1; experiment 1,76.7%
same,inhibition at 10 µM,CDK1/Cyclin E1; experiment 2,82.8%
same,inhibition at 10 µM,CDK12/Cyclin K; average,49.3%
same,inhibition at 10 µM,CDK12/Cyclin K; experiment 1,41%
same,inhibition at 10 µM,CDK12/Cyclin K; experiment 2,57.6%
same,IC50,CDK16/Cyclin Y; average (± SEM where n=3),100 ± 30 nM
same,IC50,CDK16/Cyclin Y; experiment 1,51 nM
same,inhibition at 10 µM,CDK16/Cyclin Y; experiment 1,89.7%
same,IC50,CDK16/Cyclin Y; experiment 2,140 nM
same,inhibition at 10 µM,CDK16/Cyclin Y; experiment 2,90.1%
same,IC50,CDK16/Cyclin Y; experiment 3,117 nM
same,inhibition at 10 µM,CDK13/Cyclin K; average,41.2%
same,inhibition at 10 µM,CDK13/Cyclin K; experiment 1,31.4%
same,inhibition at 10 µM,CDK13/Cyclin K; experiment 2,51.1%
same,IC50,CDK15/Cyclin Y; average (± SEM where n=3),540 ± 70 nM
same,inhibition at 10 µM,CDK15/Cyclin Y; average,92.4%
same,IC50,CDK15/Cyclin Y; experiment 1,407 nM
same,inhibition at 10 µM,CDK15/Cyclin Y; experiment 1,93.4%
same,IC50,CDK15/Cyclin Y; experiment 2,570 nM
same,inhibition at 10 µM,CDK15/Cyclin Y; experiment 2,91.4%
same,IC50,CDK15/Cyclin Y; experiment 3,648 nM
same,IC50,CDK7; average (± SEM where n=3),120 ± 50 nM
same,inhibition at 10 µM,CDK7; average,82.8%
same,IC50,CDK7; experiment 1,83 nM
same,inhibition at 10 µM,CDK7; experiment 1,83.3%
same,IC50,CDK7; experiment 2,58 nM
same,inhibition at 10 µM,CDK7; experiment 2,82.3%
same,IC50,CDK7; experiment 3,215 nM
same,IC50,CDK17/Cyclin Y; average (± SEM where n=3),90 ± 20 nM
same,inhibition at 10 µM,CDK17/Cyclin Y; average,91.6%
same,IC50,CDK17/Cyclin Y; experiment 1,57 nM
same,inhibition at 10 µM,CDK17/Cyclin Y; experiment 1,90.5%
same,IC50,CDK17/Cyclin Y; experiment 2,110 nM
same,inhibition at 10 µM,CDK17/Cyclin Y; experiment 2,92.6%
same,IC50,CDK17/Cyclin Y; experiment 3,99 nM
same,inhibition at 10 µM,CDK4/Cyclin D1; average,83.4%
same,inhibition at 10 µM,CDK4/Cyclin D1; experiment 1,81.2%
same,inhibition at 10 µM,CDK4/Cyclin D1; experiment 2,85.7%
same,inhibition at 10 µM,CDK6/Cyclin D1; average,77.1%
same,inhibition at 10 µM,CDK6/Cyclin D1; experiment 1,76.2%
same,inhibition at 10 µM,CDK6/Cyclin D1; experiment 2,78%
same,IC50,CDK11B/Cyclin L2; average (± SEM where n=3),17 ± 5 nM
same,inhibition at 10 µM,CDK11B/Cyclin L2; average,95.6%
same,IC50,CDK11B/Cyclin L2; experiment 1,9 nM
same,inhibition at 10 µM,CDK11B/Cyclin L2; experiment 1,96.5%
same,IC50,CDK11B/Cyclin L2; experiment 2,18 nM
same,inhibition at 10 µM,CDK11B/Cyclin L2; experiment 2,94.6%
same,IC50,CDK11B/Cyclin L2; experiment 3,25 nM
same,inhibition at 10 µM,CDK2/Cyclin E1; average,65.6%
same,inhibition at 10 µM,CDK2/Cyclin E1; experiment 1,61.9%
same,inhibition at 10 µM,CDK2/Cyclin E1; experiment 2,69.3%
same,inhibition at 10 µM,CDK8/Cyclin C; average,58%
same,inhibition at 10 µM,CDK8/Cyclin C; experiment 1,65.9%
same,inhibition at 10 µM,CDK8/Cyclin C; experiment 2,50%
